Key:
ApoE−/− mice = test: Plasma total cholesterol and HDL levels in ApoE−/− mice, A-002 and/or statin (Example 3); type: in vivo; settings: alone or plus 0.02 g/kg pravastatin, 12 weeks
Procedure: Body weight, plasma total cholesterol, and plasma HDL levels were measured for six groups of twelve ApoE^−/− mice. The mice were then placed on a high fat diet for twelve weeks to allow for formation of significant fatty atherosclerotic plaques. The high fat diet was a modified version of the Western diet (TD.88137, Harlan Teklad, Madison, Wis.) consisting of casein (195 g/kg), DL-methionine (3 g/kg), sucrose (341.44 g/kg), corn starch (150 g/kg), anhydrous milkfat (210 g/kg), cholesterol (1.5 g/kg), cellulose (50 g/kg), mineral mix AlN-76 (Teklad; 35 g/kg), calcium carbonate (4 g/kg), vitamin mix (Teklad #40060; 10 g/kg), ethyoxyquin (antioxidant, 0.04 g/kg), and either 0.0156 g/kg (“low dose”) A-002 (Group A), 1.56 g/kg (“high dose”) A-002 (Group B), 0.02 g/kg pravastatin (Group C), low dose A-002 plus 0.02 g/kg pravastatin (Group D), high dose A-002 plus 0.02 g/kg pravastatin (Group E), or vehicle only (Group F). Mice were administered diets A-F in a blinded manner, and food was provided ad libitum. The diet was initially prepared based on the assumption that each mouse weighed 22.5 g and ate 4.5 g/day. Based on body weight and food consumption, the diet was modified over the 12 week course of treatment to adjust for a body weight of 26 g and a food intake of 2.5 g/day. The dosages of A-002 were selected to cover a range of 100-fold based on pharmacokinetics in ApoE^−/− mice as well as toxicology and previously observed efficacy in this model.
Plasma total cholesterol and HDL levels were measured. Mean levels of total cholesterol were decreased in mice administered A-002 alone or in combination with statin (Table 3, FIG. 6). […] Mean levels of HDL were increased in mice administered A-002 at either dosage (Table 4). This increase was greater in mice administered high dose A-002 plus statin than in mice administered high dose A-002 or statin alone (Table 4 compare Group E vs. Groups B and C; FIG. 7).

[1] = system: human subjects with CVD, specifically stable coronary artery disease; test: Serum lipid levels in humans, A-002 twice a day for eight weeks (Example 4); type: in vivo
Procedure: (§1) 204 human subjects from the United States with CVD, specifically stable coronary artery disease, were randomized to receive placebo or A-002 via oral administration twice a day over an eight week administration period at dosages of 50 mg, 100 mg, 250 mg, or 500 mg. Levels of various lipids and inflammatory markers were measured at the outset of the trial and at the end of weeks four and/or eight. For data sets with a normal distribution, mean levels of lipids or inflammatory markers were analyzed. For data sets with non-normal distribution, median levels were analyzed. […] In addition, administration of A-002 decreased median levels of CRP (Table 11).
The combined effect of A-002 and statin administration on LDL levels was tested in a population of 332 subjects. This population consisted of the original 204 United States subjects, plus an additional 128 subjects from the Ukraine with stable CAD that received placebo or A-002 based according to the same protocol as the United States subjects. […] Similarly, A-002 decreased LDL levels in subjects receiving a variety of non-statin compounds used in the treatment of CVD, including ezetimibe, AEGR-733/ezetimibe, colesevelam hydrochloride (WelChol®), MK-0524A (Cordaptive®), lisinopril/MC-1 antibody (MC-4232), and Angiotensin Receptor Blocker (ARB)/MC-1 (MC-4262).

CRP = test: Serum CRP concentration in humans, A-002 twice a day (Example 4); type: in vivo, human; settings: week 8
Procedure: as §1
Serum TG, CRP, and IL-6 levels were measured at eight weeks in 86 subjects from the ITT population diagnosed with metabolic syndrome.

[2] = high dose A-002 (1.56 g/kg diet)
[3] = low dose A-002 (0.0156 g/kg diet)
[4] = diabetic subpopulation, week 8, A-002 twice a day
[5] = ezetimibe subpopulation (ezetimibe 10 mg), week 8, A-002 twice a day
[6] = metabolic syndrome subpopulation, week 8, A-002 twice a day
[7] = non-statin subpopulation with baseline serum LDL greater than or equal to 72 mg/dl, week 8, A-002 twice a day
[8] = non-statin subpopulation, week 4, A-002 twice a day
[9] = non-statin subpopulation, week 8, A-002 twice a day
[10] = serum, ITT population, week 8, A-002 50-500 mg twice a day
[11] = serum, ITT population, week 8, A-002 twice a day
[12] = statin subpopulation (US + Ukraine), week 4, A-002 twice a day
[13] = statin subpopulation (US + Ukraine), week 8, A-002 twice a day
[14] = statin subpopulation (US), week 8, A-002 twice a day
[15] = statin subpopulation with baseline serum LDL greater than or equal to 72 mg/dl, week 8, A-002 twice a day
[16] = subpopulation with baseline serum LDL greater than or equal to 72 mg/dl, week 8, A-002 twice a day
[17] = summary Table 20, A-002 alone, statin alone or A-002 plus statin
[18] = metabolic syndrome subpopulation

CCc1c(C(=O)C(N)=O)c2c(OCC(=O)OC)cccc2n1Cc1ccccc1 [A-002, [[3-(2-Amino-1,2-dioxoethyl)-2-ethyl-1-(phenylmethyl)-1H-indol-4-yl]oxy]acetic acid methyl ester] was tested, and the “Mean HDL concentration” value (ApoE−/− mice; [2]) was 17.167 mg/dL, the “Mean total cholesterol concentration” value (ApoE−/− mice; [2]) was 1301.750 mg/dL and the “Mean HDL concentration” value (ApoE−/− mice; [3]) was 21.000 mg/dL. The “Mean total cholesterol concentration” value (ApoE−/− mice; [3]) was 1355.545 mg/dL, the “reduction (decrease) of mean serum small LDL particle levels” value ([1]; at eight weeks, United States population, text restating Tables 14 and 17) was 3.25% and the “decrease of mean serum LDL levels” value ([1]; at eight weeks, United States subjects with baseline LDL of 72 mg/dl or greater, text restating Tables 15 and 19) was 8.23%. The “decrease of mean serum LDL levels” value ([1]; at week eight, combined United States and Ukraine populations, Tables 16 and 18) was 4.22%, the “decrease of mean serum LDL levels” value ([1]; at week four, combined United States and Ukraine populations, Tables 16 and 18) was 6.93% and the “% change vs. baseline (mean [LDL])” value [1, 4] was −16.64%. For the same compound, the “Change in mean [LDL] vs. baseline” value [1, 4] was -10.6 mg/dL, the “% change vs. baseline (mean [LDL])” value [1, 5] was −17.8% and the “Change in mean [LDL] vs. baseline” value [1, 5] was -15.4 mg/dL. For the same compound, the “% change vs. baseline (median [TG])” value [1, 6] was −13.99%, the “Change in median [TG] vs. baseline” value [1, 6] was -24.0 mg/dL and the “% change vs. baseline (mean [LDL])” value [1, 7] was −8.23%. The “Change in mean [LDL] vs. baseline” value [1, 7] was -9.2 mg/dL, the “% change vs. baseline (mean [LDL])” value [1, 8] was −6.93% and the “Change in mean [LDL] vs. baseline” value [1, 8] was -8.7 mg/dL. The “% change vs. baseline (mean [LDL])” value [1, 9] was −4.22%, the “% change vs. baseline (mean [small LDL particle])” value [1, 9] was −3.25% and the “Change in mean [LDL] vs. baseline” value [1, 9] was -5.3 mg/dL. The “Change in mean [small LDL particle] vs. baseline” value [1, 9] was -24.0 nmol/L, the “% change vs. baseline (mean [LDL])” value [1, 10] was −10.68% and the “Change in mean [LDL] vs. baseline” value [1, 10] was -8.2 mg/dL. The “% change vs. baseline (mean [LDL particle])” value [1, 11] was −7.13%, the “% change vs. baseline (mean [TG])” value [1, 11] was −6.67% and the “% change vs. baseline (mean [small LDL particle])” value [1, 11] was −8.33%. For the same compound, the “% change vs. baseline (mean [total cholesterol])” value [1, 11] was −8.16%, the “Change in mean [LDL particle] vs. baseline” value [1, 11] was -73.6 nmol/L and the “Change in mean [TG] vs. baseline” value [1, 11] was -10.1 mg/dL. The “Change in mean [small LDL particle] vs. baseline” value [1, 11] was -61.3 nmol/L, the “Change in mean [total cholesterol] vs. baseline” value [1, 11] was -12.8 mg/dL and the “% change vs. baseline (mean [LDL])” value [1, 12] was −14.04%. For the same compound, the “Change in mean [LDL] vs. baseline” value [1, 12] was -10.8 mg/dL, the “% change vs. baseline (mean [LDL])” value [1, 13] was −12.48% and the “Change in mean [LDL] vs. baseline” value [1, 13] was -9.6 mg/dL. The “% change vs. baseline (mean [small LDL particle])” value [1, 14] was −9.00%, the “Change in mean [small LDL particle] vs. baseline” value [1, 14] was -66.2 nmol/L and the “% change vs. baseline (mean [LDL])” value [1, 15] was −16.27%. The “Change in mean [LDL] vs. baseline” value [1, 15] was -15.0 mg/dL, the “LDL levels in subjects receiving non-statin compounds used in the treatment of CVD” value ([1]; subjects on ezetimibe, AEGR-733/ezetimibe, colesevelam hydrochloride, MK-0524A, MC-4232 or MC-4262) was “decreased” and the “% change vs. baseline (mean [LDL])” value [1, 16] was −14.68%. For the same compound, the “Change in mean [LDL] vs. baseline” value [1, 16] was -14.0 mg/dL, the “Observed change following administration: Mean serum [LDL] at week 4” value [1, 17] was −6.93% and the “Observed change following administration: Mean serum [LDL] at week 8” value [1, 17] was −4.22%. For the same compound, the “Observed change following administration: Mean serum [LDL] in ≧72 mg/dl subpopulation at week 8” value [1, 17] was −8.23%, the “Observed change following administration: Mean serum [small LDL particle] at week 8” value [1, 17] was −3.25% and the “Observed change following administration: Mean serum [LDL] at week 8” value ([1]; summary Table 22, A-002 alone, ezetimibe alone or A-002 plus ezetimibe) was −4.22%. For the same compound, the “% change vs. baseline (median [CRP])” value (CRP; [18]) was −12.50%, the “Change in median [CRP] vs. baseline” value (CRP; [18]) was -0.3 mg/L and the “% change vs. baseline (median [CRP])” value (CRP; serum, ITT population) was −13.33%. For the same compound, the “Change in median [CRP] vs. baseline” value (CRP; serum, ITT population) was -0.20 mg/L.

Reference: patent US8048880B2, “Treatment of cardiovascular disease and dyslipidemia using secretory phospholipase A2 (SPLA2) inhibitors and SPLA2 inhibitor combination therapies” (Anthera Pharmaceuticals, Inc., priority 2007, dated 2011)
